{
  "source": "patent US8633212B2",
  "about": "“Inhibitors of beta-secretase” (Vitae Pharmaceuticals, Inc., priority 2009, dated 2014)",
  "key": {"[1]": {"target": "H4 neuroglioma cell line stably expressing APP with the KM-NL Swedish mutation (H4-APPsw); soluble Amyloid Beta 1-40 (Aβ 1-40) (Homo sapiens (Human), UniProt P56817)", "sequence (P56817 46-501 limits assumed, change not shown)": "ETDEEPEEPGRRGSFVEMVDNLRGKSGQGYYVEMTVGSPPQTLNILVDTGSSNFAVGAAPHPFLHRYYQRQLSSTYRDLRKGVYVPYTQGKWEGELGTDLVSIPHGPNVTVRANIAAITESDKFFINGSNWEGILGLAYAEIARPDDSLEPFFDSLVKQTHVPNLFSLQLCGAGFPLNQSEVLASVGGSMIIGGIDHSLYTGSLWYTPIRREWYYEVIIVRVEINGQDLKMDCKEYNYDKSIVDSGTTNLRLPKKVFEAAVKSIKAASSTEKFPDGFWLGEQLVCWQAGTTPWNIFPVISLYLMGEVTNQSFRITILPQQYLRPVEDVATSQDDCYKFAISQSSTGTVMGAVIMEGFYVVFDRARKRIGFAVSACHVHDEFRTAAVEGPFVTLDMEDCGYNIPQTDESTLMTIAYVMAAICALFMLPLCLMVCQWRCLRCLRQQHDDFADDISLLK", "assay": "BACE cell assay: soluble Aβ 1-40 in culture media of H4-APPsw cells (AlphaLISA/ELISA)", "format": "cell-based", "settings": "in vitro cell activity; H4-APPsw cells treated overnight, secreted Aβ 1-40 in culture media", "procedure": "H4 neuroglioma cell line that stably expresses Amyloid Precursor Protein (APP) containing the KM-NL Swedish mutation (H4-APPsw) was generated. For the assay, cells are treated overnight in the presence of inhibitor and the culture media are subjected to ELISA analysis of soluble Amyloid Beta 1-40 (Aβ 1-40).\nGeneration and Maintenance of H4-APPsw Cell Line\nH4 neuroglioma cell line was cultured in DMEM with 10% FBS and 1% penicillin/streptomycin (Culture Medium) at 37° C., 5% CO2. […] 24 hrs after transfection, the cells were replaced into three new plates (150 mm) in fresh Culture Medium with 250 ug/mL Zeocin. […] The levels of APPsw expression were analyzed by immunoblotting and the production of Aβ 1-40 was detected by ELISA of culture supernatants. The selected clones are maintained in Culture Medium with 250 μg/mL Zeocin and routinely split in 3-4 days to maintain 20-80% confluence.\nFinal Assay Conditions (96-Well Plate)\nSplit H4-APPsw cells in Culture Medium and culture overnight such that cells will be ˜80% confluent next morning.\nCreate Compound Dilution Plate.\nAfter determining the desired final concentration of compound to be tested, create a 500× dilution plate. Add DMSO, but not inhibitor, to each well of Column 1. […] Add compounds of interest at 500× desired final concentration to wells A3-A10. […] Dilute contents of Row A 1:3 in Row B, then continue through Rows C-H.\nAdd 4 μL 5 mM control compound to Media Plate wells A1-D1 for determination of full inhibition.\nWith a multichannel pipettor, mix each well of Media Plate several times to insure homogeneity. […] Next, place Medium Plate and Cell Plate in the incubator.\nTrypsinize and count H4-APPsw cells. Dilute cells 6×10^5 cells/mL in Culture Medium and remove Cell Plate from incubator. Vortex cells to homogeneity, then using a multichannel repeating pipettor, add 100 μL cell suspension to Cell Plate, adding cells from Row H to Row A. Place Cell Plate in incubator.\nChange media in Cell Plate.\nAfter 5 h, check Cell Plate by microscope to insure cells are attached. In culture hood, remove media from Cell Plate using multichannel repeating pipettor. Add 100 μl Culture Medium to each well. Remove Media Plate from incubator and mix with pipettor as previous. Add 100 μl from each well of Media Plate to corresponding well in Cell Plate. Place Cell Plate in incubator overnight.\nPerform ELISA to determine levels of secreted Aβ 1-40.\nAfter 16 h incubation, spin Cell Plate for 8 min at 1200 rpm. The primary reading of Aβ 1-40 levels is done using PerkinElmer AlphaLISA technology. Follow the manufacturer's protocol for performing AlphaLISA in a white ½ area Optiwell plate using Row 12 for peptide standard (1:2 dilutions, starting at 15 ng/ml). Data are acquired using PerkinElmer Fusion-Alpha FP-HT, Alpha protocol (Count Time 0.6s, Count Time Ratio 30%:70%).\nExport data from Fusion using Columnar Report format into a separate file for each plate. Upload data into Activity Base using RIA-DOSE-RESPONSE protocol (Version 1). Data from at least eight doses were fitted to a four parameter logistical model using XLfit software to determine potency."}, "[2]": {"target": "truncated human beta-secretase (residues 1-458, His6-tagged at the C-terminus) (Homo sapiens (Human), UniProt P56817)", "sequence (P56817 22-458)": "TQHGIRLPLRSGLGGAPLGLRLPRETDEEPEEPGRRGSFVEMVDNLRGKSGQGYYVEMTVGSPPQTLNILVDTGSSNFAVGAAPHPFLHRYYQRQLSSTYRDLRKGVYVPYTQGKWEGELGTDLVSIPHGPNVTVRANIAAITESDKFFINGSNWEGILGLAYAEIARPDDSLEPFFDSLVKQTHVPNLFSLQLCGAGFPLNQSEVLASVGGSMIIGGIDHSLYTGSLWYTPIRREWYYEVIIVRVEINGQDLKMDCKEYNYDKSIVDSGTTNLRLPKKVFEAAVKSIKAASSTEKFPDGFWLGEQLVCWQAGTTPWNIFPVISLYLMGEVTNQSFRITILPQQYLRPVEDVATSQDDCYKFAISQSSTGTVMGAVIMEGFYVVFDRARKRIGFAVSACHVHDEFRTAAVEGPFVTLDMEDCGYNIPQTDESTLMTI", "assay": "BACE enzyme assay (fluorescence quench assay, Example 434A)", "format": "biochemical", "settings": "read-out: IC50"}, "[3]": {"settings": "footnote a: protocols described in Example 434A"}},
  "note": "Read-outs that look alike come from different tables or passages of the source.",
  "data": [
    {"smiles": "COC1CCC2(CC1)Cc1ccc(-c3cc(F)cc(Cl)c3)cc1C21N=C(N)N(C)O1", "note": "(stereo not drawn) [Compound 1]", "values": [
      {"measurement": "IC50", "setting": "[1]", "result": "< 100", "unit": "nM"},
      {"measurement": "IC50", "setting": "[2]; [3]", "result": 2.6, "unit": "nM"}
    ]},
    {"smiles": "CCO[C@H]1CC[C@]2(CC1)Cc1ccc(-c3cccc(C#N)c3)cc1C21N=C(N)N(C)O1", "note": "(stereo partly drawn) [Compound 28]", "values": [
      {"measurement": "IC50", "setting": "[1]", "result": "< 500", "unit": "nM"},
      {"measurement": "IC50", "setting": "[2]", "result": 41.7, "unit": "nM"}
    ]},
    {"smiles": "COC1CCC2(CC1)Cc1ccc(-c3cc(C)cc(C)c3)cc1C21N=C(N)N(C)O1", "note": "(stereo not drawn) [Compound 19]", "values": [
      {"measurement": "IC50", "setting": "[1]", "result": "< 500", "unit": "nM"},
      {"measurement": "IC50", "setting": "[2]; [3]", "result": 14.6, "unit": "nM"}
    ]},
    {"smiles": "COC1CCC2(CC1)Cc1ccc(-c3cccc(C(F)(F)F)c3)cc1C21N=C(N)N(C)O1", "note": "(stereo not drawn) [Compound 20]", "values": [
      {"measurement": "IC50", "setting": "[1]", "result": "< 500", "unit": "nM"},
      {"measurement": "IC50", "setting": "[2]; [3]", "result": 18.7, "unit": "nM"}
    ]},
    {"smiles": "CN1OC2(N=C1N)c1cc(-c3cccc(C#N)c3)ccc1CC21Cc2ccccc2C1", "note": "(stereo not drawn) [Compound 40]", "values": [
      {"measurement": "IC50", "setting": "[1]", "result": "< 5000", "unit": "nM"},
      {"measurement": "IC50", "setting": "[2]; [3]", "result": 160, "unit": "nM"}
    ]},
    {"smiles": "CN1OC2(N=C1N)c1cc(-c3cccc(C#N)c3)ccc1CC21CCC(F)(F)CC1", "note": "(stereo not drawn) [Compound 44]", "values": [
      {"measurement": "IC50", "setting": "[1]", "result": "< 5000", "unit": "nM"},
      {"measurement": "IC50", "setting": "[2]; [3]", "result": 189, "unit": "nM"}
    ]},
    {"smiles": "CN1OC2(N=C1N)c1cc(-c3cccc(C#N)c3)ccc1CC21CCCC1", "note": "(stereo not drawn) [Compound 50]", "values": [
      {"measurement": "IC50", "setting": "[1]", "result": "< 1000", "unit": "nM"},
      {"measurement": "IC50", "setting": "[2]; [3]", "result": 443, "unit": "nM"}
    ]},
    {"smiles": "CO[C@H]1CC[C@]2(CC1)Cc1ccc(-c3cccc(C#N)c3)cc1C21CC(=O)N(C)C(N)=N1", "note": "(stereo partly drawn) [Compound 58, 3-(2″-amino-1′″-methyl-6″-oxo-5″,6″-dihydro-1″H-spiro[spiro[2,3-dihydro-indene-2,1′-(trans-4-methoxycyclohexane)]-1,4′-pyrimidine]-6-yl)benzonitrile]", "values": [
      {"measurement": "IC50", "setting": "[1]", "result": "< 100", "unit": "nM"},
      {"measurement": "IC50", "setting": "[2]", "result": 970, "unit": "nM"}
    ]},
    {"smiles": "CO[C@H]1CC2(Cc3ccc(-c4cccc(C#N)c4)cc3C23N=C(N)N(C)O3)C[C@H]1OC", "note": "(stereo partly drawn) [Compound 57]", "values": [
      {"measurement": "IC50", "setting": "[1]", "result": "< 5000", "unit": "nM"},
      {"measurement": "IC50", "setting": "[2]; [3]", "result": 936, "unit": "nM"}
    ]},
    {"smiles": "COC1CCC2(CC1)Cc1ccc(-c3cc(F)cc(Cl)c3)cc1C21CC(=O)N(C)C(N)=N1", "note": "(stereo not drawn) [Compound 42, 2″-amino-1′″-methyl-6-(3-chloro-5-fluorophenyl)-1″H-spiro[spiro[2,3-dihydro-indene-2,1′-(trans-4-methoxycyclohexane)]-1,4′-pyrimidin]-6″(5″H)-one]", "values": [
      {"measurement": "IC50", "setting": "[1]", "result": "< 100", "unit": "nM"},
      {"measurement": "IC50", "setting": "[2]", "result": 173, "unit": "nM"}
    ]},
    {"smiles": "CN1OC2(N=C1N)c1cc(Br)ccc1CC21CCc2ccccc2CC1", "note": "(stereo not drawn) [Compound 31]", "values": [
      {"measurement": "IC50", "setting": "[1]", "result": "< 5000", "unit": "nM"},
      {"measurement": "IC50", "setting": "[2]", "result": 64, "unit": "nM"}
    ]},
    {"smiles": "CN1OC2(N=C1N)c1cc(-c3cccc(C#N)c3)ccc1CC21CC=C(F)CC1", "note": "(stereo not drawn) [Compound 34]", "values": [
      {"measurement": "IC50", "setting": "[1]", "result": "< 1000", "unit": "nM"},
      {"measurement": "IC50", "setting": "[2]; [3]", "result": 93.3, "unit": "nM"}
    ]},
    {"smiles": "CN1OC2(N=C1N)c1cc(-c3cccc(C#N)c3)ccc1CC21CCc2cc(F)ccc2C1", "note": "(stereo not drawn) [Compound 43]", "values": [
      {"measurement": "IC50", "setting": "[1]", "result": "< 5000", "unit": "nM"},
      {"measurement": "IC50", "setting": "[2]", "result": 178, "unit": "nM"}
    ]},
    {"smiles": "COC1CCC2(CC1)Cc1ccc(C#CC3CC3)cc1C21N=C(N)N(C)O1", "note": "(stereo not drawn) [Compound 3]", "values": [
      {"measurement": "IC50", "setting": "[1]", "result": "< 100", "unit": "nM"},
      {"measurement": "IC50", "setting": "[2]; [3]", "result": 4.5, "unit": "nM"}
    ]},
    {"smiles": "CN1OC2(N=C1N)c1cc(-c3cccc(C#N)c3)ccc1CC21CCc2c(F)cccc2C1", "note": "(stereo not drawn) [Compound 54]", "values": [
      {"measurement": "IC50", "setting": "[1]", "result": "< 5000", "unit": "nM"},
      {"measurement": "IC50", "setting": "[2]; [3]", "result": 618, "unit": "nM"}
    ]}
  ]
}
